Experimental data published in ChEMBL document CHEMBL1149961, “Design, synthesis, activity, and structure of a novel class of matrix metalloproteinase inhibitors containing a heterocyclic P2-P3 amide bond isostere” (Bioorg Med Chem Lett, 1996).

Tests used:
Stromelysin-1 = Stromelysin-1 (Homo sapiens, UniProt P08254); test: Inhibition of human fibroblast stromelysin, matrix metalloprotease-3
Matrilysin = target: T1, Matrilysin (Homo sapiens, UniProt P09237); test: Inhibition of matrilysin, matrix metalloprotease-7
T1 sequence (P09237 whole entry): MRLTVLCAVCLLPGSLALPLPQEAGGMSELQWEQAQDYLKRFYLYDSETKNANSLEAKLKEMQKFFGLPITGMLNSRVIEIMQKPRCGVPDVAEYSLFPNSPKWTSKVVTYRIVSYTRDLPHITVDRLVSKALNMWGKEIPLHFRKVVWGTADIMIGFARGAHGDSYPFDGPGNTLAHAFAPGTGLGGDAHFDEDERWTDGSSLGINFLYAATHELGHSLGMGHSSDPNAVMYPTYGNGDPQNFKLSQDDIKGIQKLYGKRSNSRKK

Interstitial collagenase = target: T2, Interstitial collagenase (Homo sapiens, UniProt P03956); test: Inhibition of human fibroblast collagenase, matrix metalloprotease-1
T2 sequence (P03956 whole entry): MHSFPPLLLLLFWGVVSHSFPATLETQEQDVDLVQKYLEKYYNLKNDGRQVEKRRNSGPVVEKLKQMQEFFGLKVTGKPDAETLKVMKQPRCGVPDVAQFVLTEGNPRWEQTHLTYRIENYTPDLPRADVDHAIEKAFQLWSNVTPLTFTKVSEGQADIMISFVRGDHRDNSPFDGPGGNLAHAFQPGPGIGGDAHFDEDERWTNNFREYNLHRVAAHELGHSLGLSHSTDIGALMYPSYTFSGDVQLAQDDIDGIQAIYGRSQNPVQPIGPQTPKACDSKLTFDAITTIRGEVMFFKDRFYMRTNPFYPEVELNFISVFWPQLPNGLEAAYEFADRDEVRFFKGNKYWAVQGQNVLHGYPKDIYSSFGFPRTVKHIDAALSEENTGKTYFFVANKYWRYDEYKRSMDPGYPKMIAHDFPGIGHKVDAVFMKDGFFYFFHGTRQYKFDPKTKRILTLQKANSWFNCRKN

Sequence of Stromelysin-1 (P08254 whole entry): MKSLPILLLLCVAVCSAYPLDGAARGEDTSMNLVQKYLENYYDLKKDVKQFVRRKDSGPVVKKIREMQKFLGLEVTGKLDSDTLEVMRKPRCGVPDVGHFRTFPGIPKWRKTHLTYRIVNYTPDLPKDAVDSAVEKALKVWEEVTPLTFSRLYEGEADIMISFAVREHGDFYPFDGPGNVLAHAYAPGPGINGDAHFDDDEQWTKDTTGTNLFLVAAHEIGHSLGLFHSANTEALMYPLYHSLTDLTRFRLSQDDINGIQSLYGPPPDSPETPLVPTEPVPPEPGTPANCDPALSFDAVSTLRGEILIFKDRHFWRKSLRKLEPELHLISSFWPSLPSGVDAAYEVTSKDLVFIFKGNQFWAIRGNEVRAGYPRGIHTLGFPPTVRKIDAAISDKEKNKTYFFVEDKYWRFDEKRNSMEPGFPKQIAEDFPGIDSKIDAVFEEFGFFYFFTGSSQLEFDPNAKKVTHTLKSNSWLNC

Row | SMILES | IC50 (Stromelysin-1) | IC50 (Matrilysin) | IC50 (Interstitial collagenase)
1 | CC(C)C[C@H](CC(=O)NO)C(=O)N[C@@H](CC(C)C)c1nc2cc(Cl)c(Cl)cc2[nH]1 | 68 nM | 33 nM | 40 nM
2 | CC(C)C[C@H](NC(=O)[C@@H](CC(=O)NO)C1CCCCC1)c1nc(-c2ccccc2)c[nH]1 | 5900 nM | 3.1 nM | 480 nM
3 | CC(C)C[C@H](CC(=O)NO)C(=O)N[C@@H](Cc1c[nH]c2ccccc12)c1nc2ccccc2[nH]1 | 29 nM | 10 nM | 22 nM
4 | COC(=O)c1ccc(NC(=O)[C@H](CC(C)C)NC(=O)[C@@H](CC(=O)NO)CC(C)C)cc1 | 0.8 nM | 0.23 nM | 6.9 nM
5 | COC(=O)c1ccc2nc([C@H](CC(C)C)NC(=O)[C@@H](CC(=O)NO)CC(C)C)[nH]c2c1 | 5 nM | 1 nM | 3 nM
6 | CC(C)C[C@H](CC(=O)NO)C(=O)N[C@@H](CC(C)C)c1nc2cc(C(F)(F)F)ccc2[nH]1 | 20 nM | 10 nM | 7 nM
7 | CC(C)C[C@H](CC(=O)NO)C(=O)N[C@@H](CC(C)C)c1ncc[nH]1 | 320 nM | 50 nM | 9 nM
8 | CC(C)C[C@H](CC(=O)NO)C(=O)N[C@@H](Cc1c[nH]c2ccccc12)c1ncc[nH]1 | 280 nM | 18 nM | 18 nM

Continued by falling IC50 (Stromelysin-1), values first:

Row | IC50 (Stromelysin-1) | IC50 (Matrilysin) | IC50 (Interstitial collagenase) | SMILES
9 | 320 nM | 70 nM | 3500 nM | COC(=O)c1[nH]c([C@H](CC(C)C)NC(=O)[C@@H](CC(=O)NO)CC(C)C)nc1-c1ccccc1
10 | 112 nM | 1 nM | 170 nM | CC(C)C[C@H](CC(=O)NO)C(=O)N[C@@H](CC(C)C)c1nc(-c2ccccc2)c[nH]1
11 | 30 nM | 10 nM | 6 nM | COc1ccc2nc([C@H](CC(C)C)NC(=O)[C@@H](CC(=O)NO)CC(C)C)[nH]c2c1
12 | 8 nM | 2 nM | 29 nM | CC(C)C[C@H](CC(=O)NO)C(=O)N[C@@H](CC(C)C)c1nc2ccccc2[nH]1
